Test results: patent US4376116A, “Polyamine biosynthesis inhibitors” (Research Corporation, priority 1981, dated 1983)
Where two headings read alike, the source gives them in different places.

Tests used:
SAM-dependent methylases = conditions: cited from earlier work
[1] = molecular target: T1, rat prostate spermidine synthase (Rattus norvegicus, UniProt Q99MI5); test: Inhibition of purified spermidine synthase from rat ventral prostate; type: biochemical
T1 construct: purified spermidine synthase obtained from the rat ventral prostate; from tissue; host or cells: rat ventral prostate
T1 sequence (Q99MI5 1-302): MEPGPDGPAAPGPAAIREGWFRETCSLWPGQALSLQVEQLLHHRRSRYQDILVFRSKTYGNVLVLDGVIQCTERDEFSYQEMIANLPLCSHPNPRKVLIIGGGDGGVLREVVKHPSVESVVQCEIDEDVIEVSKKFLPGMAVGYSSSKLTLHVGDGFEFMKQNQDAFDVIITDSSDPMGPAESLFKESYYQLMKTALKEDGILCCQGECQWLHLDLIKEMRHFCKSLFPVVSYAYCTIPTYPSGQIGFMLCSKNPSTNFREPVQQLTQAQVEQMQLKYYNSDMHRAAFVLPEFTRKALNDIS

[2] = molecular target: T2, rat prostate spermine synthase (Rattus norvegicus, UniProt Q3MIE9); test: Inhibition of rat prostate spermine synthase; type: biochemical; conditions: for inhibition at 100 µM: second preparation of spermine synthase
T2 construct: with respect to rat prostate spermine synthase; from tissue; host or cells: rat prostate
T2 sequence (Q3MIE9 1-366): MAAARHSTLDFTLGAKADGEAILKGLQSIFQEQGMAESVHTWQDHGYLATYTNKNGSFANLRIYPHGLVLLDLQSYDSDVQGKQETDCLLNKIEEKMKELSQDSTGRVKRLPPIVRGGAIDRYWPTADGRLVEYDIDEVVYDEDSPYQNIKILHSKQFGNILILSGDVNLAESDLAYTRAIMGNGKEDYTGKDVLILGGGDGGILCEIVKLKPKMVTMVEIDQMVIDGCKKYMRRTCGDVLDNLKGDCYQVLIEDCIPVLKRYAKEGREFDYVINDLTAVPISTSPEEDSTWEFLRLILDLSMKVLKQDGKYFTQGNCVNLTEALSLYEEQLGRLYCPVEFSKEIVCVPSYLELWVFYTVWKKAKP
Text: This enzyme catalyzes the synthesis of spermine in the reaction of spermidine with decarboxylated S-adenosylmethionine, presumably by direct nucleophilic attack as shown by the above transition state wherein R is aminopropyl.

[3] = molecular target: T3, methylthioadenosine phosphorylase (Rattus norvegicus, UniProt A0A0G2K583); test: Inhibition of methylthioadenosine (MTA) phosphorylase; type: biochemical; conditions: for % Inhibition MTA Phosphorylase: methyl thioadenosine 100 μm
T3 construct: In the tests involving MTA phosphorylase, the procedure described by H. Hibasami was employed; from tissue
T3 sequence (A0A0G2K583 1-283): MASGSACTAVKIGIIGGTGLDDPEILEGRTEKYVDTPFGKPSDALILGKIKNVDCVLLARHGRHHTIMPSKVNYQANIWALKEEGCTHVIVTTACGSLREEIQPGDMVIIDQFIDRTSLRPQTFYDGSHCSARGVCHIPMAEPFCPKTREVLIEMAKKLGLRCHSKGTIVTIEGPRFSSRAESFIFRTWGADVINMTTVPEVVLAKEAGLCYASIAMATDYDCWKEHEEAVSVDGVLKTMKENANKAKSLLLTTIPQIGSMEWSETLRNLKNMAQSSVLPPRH
Text: However, they can be readily prepared by coupling 5'-deoxy-5'-chloroadenosine with an appropriate thiol compound. […] (In the tests involving MTA phosphorylase, the procedure described by H. Hibasami was employed at a methyl thioadenosine concentration of 100 μm.)

aminopropyl transferases = conditions: another study; cited from earlier work
[4] = Solubility limiting the concentration range; type: physicochemical; conditions: concentration range limited
[5] = at concentrations as high as 250 μM

Compound	inhibition of spermidine synthase (in words) [1]	% Inhibition Spermidine Synthase ([1]; Concentration 50, dcSAM 21 μm) [%]	% Inhibition Spermidine Synthase ([1]; Concentration 100, dcSAM 21 μm) [%]	inhibition of spermine synthase (in words) [2]	% Inhibition Spermidine Synthase ([1]; Concentration 250, dcSAM 21 μm) [%]	% Inhibition Spermine Synthase ([2]; Concentration 50) [%]	% Inhibition Spermine Synthase ([2]; Concentration 100) [%]	% Inhibition Spermine Synthase ([2]; Concentration 250) [%]	% Inhibition MTA Phosphorylase ([3]; Concentration 250) [%]	further results
Nc1ncnc2c1ncn2[C@@H]1O[C@H](CSCC[C@H](N)C(=O)O)[C@@H](O)[C@H]1O [S-adenosyl-L-homocysteine]	–	–	–	–	–	–	–	–	–	inhibition of SAM-dependent methylases (in words) (SAM-dependent methylases; another study): non-specific inhibition; Ki versus Km of S-adenosyl-L-methionine (in words) (SAM-dependent methylases; many methylases, Cantoni et al): considerably less than the Km value for the corresponding sulfonium substrate
NCCCCCC(CCN)SC[C@H]1O[C@@H](n2cnc3c(N)ncnc32)[C@H](O)[C@@H]1O (stereo partly drawn) [Compound Ic, S-Adenosyl-1,8-diamino-3-thiooctane]	more potent inhibitor of spermidine synthase than the fully charged methyl sulfonium salt IIc	99	99	almost no inhibitory activity	–	–	–	–	–	% Inhibition Spermidine Synthase ([1]; Concentration 10, dcSAM 21 μm): 97%; % Inhibition Spermidine Synthase ([1]; Concentration 25, dcSAM 21 μm): 97%; inhibitory specificity against spermidine synthase (in words) ([1]; versus spermine synthase): unusual inhibitory specificity; % Inhibition Spermine Synthase ([2]; Concentration 25): 10%; effect on methylthioadenosine phosphorylase (in words) [3]: neither compound Ic nor IIc has any significant effect; % Inhibition MTA Phosphorylase ([3]; Concentration 10): 3%; % Inhibition MTA Phosphorylase ([3]; Concentration 25): 8%; % Inhibition MTA Phosphorylase ([3]; Concentration 100): 10%
NCCCCCC(O)CCN (stereo not drawn) [1,8-diamine-3-octanol, reference compound]	–	–	–	–	–	–	–	–	–	inhibition of spermidine synthase (in words) [1, 5]: completely inactive; inhibition of spermine synthase (in words) [2, 5]: completely inactive
CCCCCC(CC)[S+](C)C[C@H]1O[C@@H](n2cnc3c(N)ncnc32)[C@H](O)[C@@H]1O (stereo partly drawn) [Compound IIb, S-Adenosyl-3-methylthiooctane]	do not at all inhibit	7	14	only modest inhibition	44	35	56	75	21	inhibition at 100 µM [2]: 19%
C[S+](C[C@H]1O[C@@H](n2cnc3c(N)ncnc32)[C@H](O)[C@@H]1O)C(CCN)CCCCCN (stereo partly drawn) [IIc, S-Adenosyl-1,8-diamino-3-(methylthio)octane]	–	84	92	only modest inhibition	96	40	59	86	25	% Inhibition Spermidine Synthase ([1]; Concentration 10, dcSAM 21 μm): 32%; % Inhibition Spermine Synthase ([2]; Concentration 10): 7%; inhibition at 100 µM [2]: 28%; effect on methylthioadenosine phosphorylase (in words) [3]: neither compound Ic nor IIc has any significant effect
CSC[C@H]1O[C@@H](n2cnc3c(N)ncnc32)[C@H](O)[C@@H]1O [Ia, 5'-methylthioadenosine]	inhibitor of both spermidine synthase and spermine synthase	–	–	inhibitor of both spermidine synthase and spermine synthase	–	–	–	–	–	% Inhibition Spermidine Synthase ([1]; Concentration 50, dcSAM 42 μM): 61%; % Inhibition Spermidine Synthase ([1]; Concentration 100, dcSAM 42 μM): 82%; % Inhibition Spermine Synthase ([2]; Concentration 50, dcSAM 42 μM): 80%; % Inhibition Spermine Synthase ([2]; Concentration 100, dcSAM 42 μM): 98%; MTA Phosphorylase (substrate, in words) [3]: Substrate; inhibition of aminopropyl transferases (in words) (aminopropyl transferases): non-specific inhibition
CCCCCC(CC)SC[C@H]1O[C@@H](n2cnc3c(N)ncnc32)[C@H](O)[C@@H]1O (stereo partly drawn) [Compound Ib, S-adenosyl-3-thiooctane]	do not at all inhibit	–	0	almost no inhibitory activity	–	–	22	–	–	% Inhibition Spermidine Synthase ([1]; Concentration 25, dcSAM 21 μm): 0%; % Inhibition Spermine Synthase ([2]; Concentration 25): 11%; % Inhibition MTA Phosphorylase ([3]; Concentration 100): 25%; solubility (in words) [4]: poor solubility
C[S+](C)C[C@H]1O[C@@H](n2cnc3c(N)ncnc32)[C@H](O)[C@@H]1O.[O-][Cl+3]([O-])([O-])[O-] [IIa, Dimethyl-(5'-adenosyl)sulfonium perchlorate]	–	0	–	shows inhibition of spermine synthase	6	68	–	82	30	–
